{"source": "patent US20180355410A1", "about": "“DIAGNOSIS AND TREATMENT OF INFECTIOUS DISEASE” (Cambridge Enterprise Limited, priority 2015, published 2018)", "origin": "cited, not measured here", "system": "Neisseria gonorrhoeae", "settings": "EUCAST clinical breakpoint valid from 1st January 2015", "data": [{"molecule": "CC[C@H]1OC(=O)[C@H](C)[C@@H](O[C@H]2C[C@@](C)(OC)[C@@H](O)[C@H](C)O2)[C@H](C)[C@@H](O[C@@H]2O[C@H](C)C[C@H](N(C)C)[C@H]2O)[C@](C)(O)C[C@@H](C)CN(C)[C@H](C)[C@@H](O)[C@]1(C)O", "note": "[Azithromycin]", "values": [{"measurement": "MIC R-breakpoint (resistant)", "value": "> 0.5", "unit": "µg/mL"}, {"measurement": "MIC S-breakpoint (susceptible)", "value": "≤ 0.25", "unit": "µg/mL"}]}]}
